Results taken from patent US10273228B2, “Hepatitis B viral assembly effectors” (Indiana University Research and Technology Corporation, priority 2015, dated 2019).
Like-named read-outs stand apart in the source and are kept apart here.

What was measured:
AD38 cells = assay: AD38 viability normalized to DMSO control; format: cell-based; conditions: 10 μM compound, vs DMSO control
Procedure: AD38 cells were then re-suspended with 10 mL of treatment medium and counted. Wells of a collagen coated 96-well NUNC microtiter plate were seeded at 50,000/well in 180 μL of treatment medium, and 20 μL of either 10% DMSO (Control) or a 10× solution of test compound in 10% DMSO in treatment media was added for a final compound concentration 1, 3, or 10 μM (1.0% final [DMSO]) and plates were incubated for 6 days at 37° C.

[1] = system: HBV viral load, AD38 cells; assay: Activity of test compounds on viral production from AD38 cells (viral load by quantitative PCR of the core sequence in supernatant); format: cell-based, Hepatitis B virus; conditions: Hepatitis B virus, 144 h, 10 μM compound, 6 days at 37° C., vs DMSO control wells, read-out: AD38 Viral Load (CpAM/DMSO %) at 10 μM
Summary of the method: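 Cells seeded at 50,000/well on collagen-coated plates and exposed for 6 days at 37 °C to compound at 1, 3 or 10 μM final (1.0% DMSO). Supernatant viral DNA measured by TaqMan qPCR of the core sequence against known standards, compared with DMSO control wells.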

O=S(=O)(c1ccc(OC(F)(F)F)cc1)N1CCN(c2nc(Nc3nccs3)cc(C(F)(F)F)n2)CC1 [Compound 1418, N-(2-(4-((4-(trifluoromethoxy)phenyl)sulfonyl)piperazin-1-yl)-6-(trifluoromethyl)pyrimidin-4-yl) thiazol-2-amine]
AD38 Viability Normalized Result (CPAM/DMSO %) at 10 μM (AD38 cells; Table 9): 100% | activity at 10 µM ([1]; Table 9): 120%

CCOc1ccc(S(=O)(=O)N2CCN(c3nc(Nc4ccc(C#N)cc4)cc(-c4nccs4)n3)CC2)cc1 [Compound 1353]
AD38 Viability Normalized Result (CPAM/DMSO %) at 10 μM (AD38 cells; Table 9): 107% | activity at 10 µM ([1]; Table 9): 7%

CN(C)c1cc(Nc2ccc(F)cc2)nc(N2CCN(S(=O)(=O)c3ccc(C(F)(F)F)cc3)CC2)n1 [Compound 1303]
AD38 Viability Normalized Result (CPAM/DMSO %) at 10 μM (AD38 cells; Table 6): 35% | activity at 10 µM ([1]; Table 6): 14%

COCCOCCOc1ccc(S(=O)(=O)N2CCN(c3nc(Nc4ccc(F)cc4)cc(C(F)(F)F)n3)CC2)cc1 [Compound 1402]
AD38 Viability Normalized Result (CPAM/DMSO %) at 10 μM (AD38 cells; Table 9): 97% | activity at 10 µM ([1]; Table 9): 12%

COc1ccc(S(=O)(=O)N2CCN(c3cc(C)nc(Nc4ccc(C)cc4)n3)CC2)cc1 [Compound 1150]
AD38 Viability Normalized Result (CPAM/DMSO %) at 10 μM (AD38 cells; Table 6): 89% | activity at 10 µM ([1]; Table 6): 4%

O=S(=O)(c1ccc(F)cc1)N1CCN(c2nc(Nc3ccc(F)cc3)cc(-c3nccs3)n2)CC1 [Compound 1362]
AD38 Viability Normalized Result (CPAM/DMSO %) at 10 μM (AD38 cells; Table 9): 88% | activity at 10 µM ([1]; Table 9): 54%

CCCCCOc1ccc(S(=O)(=O)N2CCN(c3nc(Nc4ccc(F)cc4)cc(C(F)(F)F)n3)CC2)cc1 [Compound 1401]
AD38 Viability Normalized Result (CPAM/DMSO %) at 10 μM (AD38 cells; Table 9): 97% | activity at 10 µM ([1]; Table 9): 42%

COc1ccc(S(=O)(=O)N2CCN(c3nc(Nc4ccc(C)cc4)cc(N(C)C(C)C)n3)CC2)cc1 [Compound 1248]
AD38 Viability Normalized Result (CPAM/DMSO %) at 10 μM (AD38 cells; Table 6): 33% | activity at 10 µM ([1]; Table 6): 8%

COc1cccc(S(=O)(=O)N2CCN(c3cc(C)nc(Nc4ccc(C)cc4)n3)CC2)c1 [Compound 1151]
AD38 Viability Normalized Result (CPAM/DMSO %) at 10 μM (AD38 cells; Table 6): 73% | activity at 10 µM ([1]; Table 6): 1%

COc1ccc(S(=O)(=O)N2CCN(c3nc(C)cc(Sc4ccc(C)cc4)n3)CC2)cc1 [Compound 1159]
AD38 Viability Normalized Result (CPAM/DMSO %) at 10 μM (AD38 cells; Table 6): 95% | activity at 10 µM ([1]; Table 6): 81%

O=S(=O)(c1ccc(C(F)(F)F)cc1)N1CCN(c2nc(Nc3ccc(F)cc3)cc(C(F)(F)F)n2)CC1 [Compound 1391]
AD38 Viability Normalized Result (CPAM/DMSO %) at 10 μM (AD38 cells; Table 9): 88% | activity at 10 µM ([1]; Table 9): 16%

Cc1cc(Nc2ccc(F)cc2)nc(N2CCN(S(=O)(=O)c3ccc(O[C@@H](C)C(=O)O)cc3)CC2)n1 [Compound 1396, (S)-2-(4-((4-(4-((4-fluorophenyl)amino)-6-methylpyrimidin-2-yl)piperazin-1-yl)sulfonyl)phenoxy) propanoic acid]
AD38 Viability Normalized Result (CPAM/DMSO %) at 10 μM (AD38 cells; Table 9): 100% | activity at 10 µM ([1]; Table 9): 70%

O=S(=O)(c1ccc(C(F)(F)F)cc1)N1CCN(c2nc(Nc3ccc(F)cc3)cc(-n3cnnc3)n2)CC1 [Compound 1315]
AD38 Viability Normalized Result (CPAM/DMSO %) at 10 μM (AD38 cells; Table 6): 98% | activity at 10 µM ([1]; Table 6): 89%

Cc1cc(Nc2ccc(F)cc2)nc(N2CCN(S(=O)(=O)c3ccc(OCCCC(=O)O)cc3)CC2)n1 [Compound 1394, 4-(4-((4-(4-((4-fluorophenyl)amino)-6-methylpyrimidin-2-yl)piperazin-1-yl)sulfonyl)phenoxy) butanoic acid]
AD38 Viability Normalized Result (CPAM/DMSO %) at 10 μM (AD38 cells; Table 9): 79% | activity at 10 µM ([1]; Table 9): 32%

CCCCOc1ccc(S(=O)(=O)N2CCN(c3nc(C)cc(Nc4ccc(F)cc4)n3)CC2)cc1 [Compound 1337]
AD38 Viability Normalized Result (CPAM/DMSO %) at 10 μM (AD38 cells; Table 9): 93% | activity at 10 µM ([1]; Table 9): 34%

N#Cc1ccc(Nc2cc(C(F)(F)F)nc(N3CCN(S(=O)(=O)c4ccc(OC(F)(F)F)cc4)CC3)n2)cc1 [Compound 1332]
AD38 Viability Normalized Result (CPAM/DMSO %) at 10 μM (AD38 cells; Table 9): 85% | activity at 10 µM ([1]; Table 9): 13%
